Consider 60 molecules from PubChem BioAssay AID463206 (Broad Institute, 2010).

The source made the active and inactive calls.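 How the source made its calls: active means caspase luminescence falls with dose and the half-maximal concentration AC50 from the fitted curve is at or below a set limit; inconclusive means flat fit at 30 to 70% signal loss, or invalid fit; inactive means AC50 above the limit, or signal rises instead.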 Where only a bound is given, the exact number is not on record here.

For the experiment, the system named is INS-1E cytokine-induced caspase-3/7, Caspase-Glo luminescence, 48 h. Kind of experiment: inhibitors of cytokine-induced caspase-3/7 activity, dose response, orthogonal assay for beta-cell apoptosis protection project, INS-1E rat cells, luminescence (AID 463206).
As a reminder, the AC50 is the concentration at which the activity in the assay is half-maximal. In the case of `Cc1cccc(/C=N\NC(=O)c2ccc(Cl)cc2)c1O`, the AC50 was > 26 µM (inactive).
Next, `CC1CCN(c2ccc(NC(=O)c3ccc([N+](=O)[O-])o3)cc2)CC1`: > 26 µM (inactive); `CC1Sc2ccc(S(=O)(=O)N3CCC(C(=O)Nc4ccc(Cl)cc4)CC3)cc2NC1=O` (stereo not given): > 26 µM (inactive).
Next, `O=[N+]([O-])c1ccc(N=Nc2c(Cl)cc(O)cc2Cl)cc1`: > 26 µM (inactive); `COc1cc(C(=O)NC(=S)NNC(=O)c2cnccn2)cc(OC)c1OC`: > 26 µM (inactive).
Next, `Cc1cc(C)c[n+](C2=C([O-])c3ccccc3C(=O)/C2=N\S(=O)(=O)c2cccs2)c1`: > 26 µM (inactive).
Turning to `Cc1ccc(Nc2c3c(nc4ccccc24)CCC3)cc1`, the AC50 was > 26 µM (inactive).
In the case of `Cc1cccc(Cn2nnc3c2C(=O)c2ccccc2C3=O)c1`, the AC50 was > 26 µM (inactive).
Next, `CN(C)c1cc[n+](CC(=O)Nc2ccc(Oc3ccccc3)cc2)cc1`: > 26 µM (inactive); `Cc1ccc(C2CC(c3ccc(C)cc3)n3nc(N)nc3N2)cc1` (stereo not given): > 26 µM (inactive); `O=C(NC(c1ccc(Cl)cc1)c1cc(Cl)c2cccnc2c1O)c1cccnc1` (stereo not given): > 26 µM (inactive).
Next, `FC(F)(F)c1cccc(-c2nc3nc(Cl)c(Cl)nc3[nH]2)c1`: > 26 µM (inactive); `O=[N+]([O-])c1ccc(-n2cnc3ccccc32)c([N+](=O)[O-])c1`: > 12 µM (inactive).
Next, `c1ccc2c(NCCCN3CCOCC3)c3ccccc3nc2c1`: 7.15 µM; `CCCCCn1c(=O)c(C(=O)NC(C)c2ccccc2)c(O)c2ccccc21` (stereo not given): > 26 µM (inactive).
On to `CC1CC(=O)c2c(cc3c(-c4c(O)cc(O)c5c(O)c6c(cc45)OC(C)CC6=O)c(O)cc(O)c3c2O)O1` (stereo not given), for which the AC50 was > 26 µM (inactive).
With `Cc1nc(Nc2cnc(/C=C/c3cc(C(=O)Nc4cccc(C(F)(F)F)c4)ccc3C)cn2)cc(N2CCNCC2)n1`, the AC50 was > 26 µM (inactive).
In the case of `Cc1ccn2c(Nc3ccccc3)c(-c3ccccn3)nc2c1`, the AC50 was > 26 µM (inactive).
With `Nc1nc(Cl)cc(N2CCC(c3cc(-c4ccc(Cl)cc4)n[nH]3)CC2)n1`, the AC50 was > 26 µM (inactive).
Next, `CCOC(=O)c1ccc(NC(=O)c2nc(S(=O)(=O)Cc3ccccc3)ncc2Cl)cc1`: > 26 µM (inactive); `Cc1nnsc1-c1onc(C)c1C(=O)Nc1cc(Cl)cc(Cl)c1`: > 26 µM (inactive).
Regarding `Cn1nnnc1Sc1ncnc2scc(-c3cc4ccccc4o3)c12`, the AC50 was > 26 µM (inactive).
Next, `C=CCSc1nc2ccccc2n1C(=O)/C=C/c1ccc(OC)c(OC)c1`: > 26 µM (inactive); `Cc1cc(C(=O)c2ccc3ccccc3c2)c(C)o1`: > 26 µM (inactive); `C=C1C(=O)O[C@@H]2C[C@@H](C)[C@@H]3C=CC(=O)[C@@]3(C)[C@@H](O)[C@H]12`: > 26 µM (inactive).
Next, `COc1ccccc1N1C(C)=CC(=C(C#N)c2nc3ccccc3s2)C=C1C`: > 26 µM (inactive); `C/C(=N\NC(=O)c1ccccc1OCc1ccc(F)cc1)c1ccccn1`: > 26 µM (inactive).
As for `COC(=O)C1CN(C#N)N(c2ccc(Cl)cc2)C12c1ccccc1-c1ccccc12` (stereo not given), the AC50 is > 26 µM (inactive).
Take `CC1=NN(c2nc3ccccc3[nH]2)C(=O)/C1=C/N(C)C`: the AC50 is > 26 µM (inactive).
Next, `CCOc1ccc2nc(NC(=O)c3ccccn3)sc2c1`: > 26 µM (inactive); `COc1cc(CNCCO)cc(Cl)c1OCc1ccc(Cl)cc1Cl`: > 26 µM (inactive); `COc1ccc(-n2c(-c3ccc(Br)cc3)c[n+]3c2CCc2ccccc2-3)cc1`: > 26 µM (inactive).
Take `COc1cc([N+](=O)[O-])ccc1NC(=O)CC1SC(=Nc2ccc(F)cc2)N(CCC2=CCCCC2)C1=O` (stereo not given): the AC50 is > 26 µM (inactive).
Next, `O=C(Cc1cccs1)N/N=C\c1ccc([N+](=O)[O-])s1`: > 26 µM (inactive); `COc1ccc(Cc2nnc(N/N=C/c3ccc(O)cc3)[nH]c2=O)cc1OC`: > 26 µM (inactive).
For `CCC(C)Sc1cccc(-c2nc3ccc(C)cn3c2NCc2ccccc2)c1` (stereo not given), the AC50 is > 26 µM (inactive).
Next, `CC1=C(C#N)C(C(F)(F)F)(C(F)(F)F)N=C(c2ccco2)N1`: > 26 µM (inactive).
Consider `O=C(Nc1nc2ccccc2s1)c1cc(-c2ccccc2)nn1-c1ccccc1`, for which the AC50 was > 26 µM (inactive).
Next, `Cc1cccnc1CCNCc1c(C(=O)N2C[C@@H](C)O[C@@H](C)C2)nc2ccc(Cl)cn12`: > 26 µM (inactive); `COc1cccc(/C=N/NC(=O)c2cc3cc([N+](=O)[O-])ccc3s2)c1O`: > 26 µM (inactive); `Oc1cccc(/C=N/Nc2ccc(Cl)nn2)c1O`: > 26 µM (inactive).
Regarding `CCn1c(=NC(=O)c2ccc(S(=O)(=O)N3CCOCC3)cc2)sc2cccc(OC)c21`, the AC50 was > 26 µM (inactive).
As to `CCc1cc(C(=O)NC2CCCc3c2cnn3-c2cccc(C)c2C)n(C)n1` (stereo not given), the AC50 was > 26 µM (inactive).
For `O=C(Oc1c(CN2CCOCC2)cc(Cl)c2cccnc12)c1cccs1`, the AC50 is > 26 µM (inactive).
Next, `Cc1cccc(/C=N/NC(=O)c2c(-c3ccccc3)noc2C)c1O`: > 26 µM (inactive); `CC(C)COCc1ccc(O)c2ncccc12`: > 26 µM (inactive).
Next, `COc1cccc(/C=N/NC(=O)c2c(C)nc3ccc(Br)cn23)c1O`: > 26 µM (inactive).
With `CCC[C@@H](CN1CCC[C@H]1CN1C(N)=NC[C@@H]1Cc1ccccc1)N1C[C@@H]([C@H](C)CC)N(CCCC2CCCC2)C1=N`, the AC50 is > 26 µM (inactive).
For `CCN1CCN(CCCNC(=O)c2ccc3c(c2)NC(=O)/C(=C\c2cccc(C)c2)S3)CC1`, the AC50 is 10.3 µM.
Next, `CN(C)C1=NC[C@H](Cc2ccccc2)N1CCCC1CCCCC1`: > 26 µM (inactive).
Next, `Cc1nc2ccccc2c(=O)n1/N=C/c1c(O)ccc2ccccc12`: > 26 µM (inactive).
Next, `Cc1ccc(-c2cnc(NC(=O)CCC(=O)N(C)Cc3ccccc3)n2C)cc1`: > 26 µM (inactive).
Take `CCc1ccc(CN(C)C(=O)c2cc(COc3cccc4cnccc34)on2)cc1`: the AC50 was > 26 µM (inactive).
Next, `Cc1cc(Cl)c(S(=O)(=O)N2CCN(c3ccc(F)cc3)CC2)cc1OCC(=O)NC1CCCCC1`: > 26 µM (inactive).
Next, `Cc1cccc(C(=O)Nc2ccc(C(=O)/C=C/c3cccnc3)cc2)c1`: > 26 µM (inactive); `CCc1ccc(-n2cc(-c3ccc(F)cc3)[n+]3c2SCCC3)cc1`: > 26 µM (inactive); `CCCCCc1nc2c(c(=O)c3ccccc3n2C)c(=O)n1C1CCCCCC1`: > 26 µM (inactive).
Next, `Cc1nc2c(-c3ccc(Cl)cc3)c(C)[nH]n2c(=O)c1Cc1ccccc1`: > 26 µM (inactive).
Consider `Oc1ccc(Nc2nc(N3CCCC3)c3ccccc3n2)cc1`, for which the AC50 is 8.57 µM.
Take `CC1=C(C)/C(=N\OS(=O)(=O)c2ccccc2)C=CC1=O`: the AC50 is > 26 µM (inactive).
